Experimental findings from EP0490590A1, “New benzodiazepine analogs” (MERCK & CO. INC., priority 1990, dated 1992) are described below.

One experiment concerns the target T1, CCK receptor (pancreas) (Rattus norvegicus, UniProt P30551).
T1 construct: The whole pancreas was dissected free of fat tissue and was homogenized; from tissue; host or cells: rat whole pancreas membrane homogenate
T1 sequence (P30551 1-444): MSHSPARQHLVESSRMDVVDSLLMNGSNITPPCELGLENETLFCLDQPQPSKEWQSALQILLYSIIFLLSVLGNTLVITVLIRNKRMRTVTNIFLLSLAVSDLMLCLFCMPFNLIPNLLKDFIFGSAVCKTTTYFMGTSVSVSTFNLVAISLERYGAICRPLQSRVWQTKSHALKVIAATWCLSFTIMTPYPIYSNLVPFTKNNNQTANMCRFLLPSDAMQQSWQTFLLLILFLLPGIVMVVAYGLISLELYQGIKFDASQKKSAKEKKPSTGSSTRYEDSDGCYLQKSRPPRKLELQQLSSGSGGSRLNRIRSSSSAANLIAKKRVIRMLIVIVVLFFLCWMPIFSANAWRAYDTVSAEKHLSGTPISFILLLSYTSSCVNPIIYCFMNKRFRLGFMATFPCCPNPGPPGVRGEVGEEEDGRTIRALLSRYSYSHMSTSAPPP
Description: CCK Receptor Binding (Pancreas), 125I-CCK-33. Conditions: inhibition of 125I-CCK-33 binding, rat pancreas membranes, 37°C, 30 minutes. The method, then:
1. CCK Receptor Binding (Pancreas)
CCK-33 was radiolabeled with ¹²⁵I-Bolton Hunter reagent (2000 Ci/mmole) as described by Sankara et al. (J. Biol. Chem. 254: 9349-9351, 1979). Receptor binding was performed according to Innis and Snyder (Proc. Natl. Acad. Sci. 77, 6917-6921, 1980) with the minor modification of adding the additional protease inhibitors, phenylmethane sulfonyl fluoride and o-phenanthroline. The latter two compounds have no effect on the ¹²⁵I-CCK receptor binding assay.
Male Sprague-Dawley rats (200-350g) were sacrificed by decapitation. The whole pancreas was dissected free of fat tissue and was homogenized in 20 volumes of ice-cold 50 mM, Tris HCl (pH 7.7 at 25°C) with a Brinkmann Polytron PT 10. The homogenates were centrifuged at 48,000 g for 10 min. Pellets were resuspended in Tris Buffer, centrifuged as above and resuspended in 200 volumes of binding assay buffer (50 mM Tris HCl, pH 7.7 at 25°C, 5 mM dithiothrietol, 0.1 mM bacitracin, 1.2 mM phenylmethane sulfonyl fluoride and 0.5 mM o-phenanthroline). […] The supernatant was aspirated and discarded, pellets were counted with a Beckman gamma 5000. […]

Experiment [1] addresses T2, CCK receptor (brain, cerebral cortex) (Cavia porcellus, UniProt H0VZC5).
T2 construct: Cerebral cortex was dissected and used as a receptor source; from tissue; host or cells: guinea pig cerebral cortex membranes
The experiment can be described thus: CCK Receptor Binding (Brain), 125I-CCK-33. Conditions: inhibition of 125I-CCK-33 binding, guinea pig cerebral cortex membranes, 25°C, 2 hours. The method, then: 2. CCK Receptor Binding (Brain)
CCK-33 was radiolabeled and the binding was performed according to the description for the pancreas method with modifications according to Saito et al., J. Neurochem. 37:483-490, 1981.
Male Hartley guinea pigs (300-500g) were sacrificed by decapitation and the brains were removed and placed in ice-cold 50 mM, Tris HCl plus 7.58 g/l Trizma-7.4 (ph 7.4 at 25°C). Cerebral cortex was dissected and used as a receptor source. Each gram of fresh guinea pig brain tissue was homogenized in 10 ml of Tris/Trizma buffer with a Brinkman polytron PT-10. The homogenates were centrifuged at 42,000 g for 15 minutes. Pellets were resuspended in Tris Buffer, centrifuged as above and resuspended in 200 volumes of binding assay buffer (10 mM N-2-hydroxyethyl-piperazine-N′-2-ethane sulfonic acid (HEPES), 5 mM MgCl₂, 0.25 mg/ml bacitracin, 1 mM ethylene glycol-bis-(β-aminoethylether-N,N′-tetraacetic acid) (EGTA), and 0.4% bovine serum albumin (BSA)). […] The supernatant was aspirated and discarded, pellets were counted with a Beckman gamma 5000.

T2 sequence (H0VZC5 entry or part of it): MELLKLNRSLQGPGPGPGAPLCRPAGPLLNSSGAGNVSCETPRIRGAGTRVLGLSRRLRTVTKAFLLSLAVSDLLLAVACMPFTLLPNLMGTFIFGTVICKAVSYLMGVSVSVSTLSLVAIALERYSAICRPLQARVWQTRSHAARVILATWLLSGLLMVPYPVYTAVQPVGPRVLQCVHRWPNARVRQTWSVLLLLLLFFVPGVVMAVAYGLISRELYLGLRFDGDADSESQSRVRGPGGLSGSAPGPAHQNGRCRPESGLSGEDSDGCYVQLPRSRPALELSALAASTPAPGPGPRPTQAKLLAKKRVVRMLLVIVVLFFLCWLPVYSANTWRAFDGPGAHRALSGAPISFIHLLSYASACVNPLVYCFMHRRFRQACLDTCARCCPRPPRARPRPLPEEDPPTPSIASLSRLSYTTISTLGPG

What is called IC50 is the concentration that gives 50% inhibition. Read a low IC50 as inhibition by little substance. Turning to `CN1C(=O)C(NC(=O)c2cc3cc(O)ccc3[nH]2)N=C(c2ccccc2)c2ccccc21` (centres unmarked) [Example 15, 1,3-Dihydro-3-(5-hydroxyindole-2-carbonylamino)-1-methyl-5-phenyl-2H-1,4-benzodiazepin-2-one], the results for the IC50 (on CCK receptor (pancreas); in experiment [1]) were 0.0033 µM and 0.91 µM, respectively.
